# In patent US8722714B2, “Oxazolidine derivatives as NMDA antagonists” (The Honk Kong University of Science and Technology, priority 2008, dated 2014):
# How the values were obtained:
# [1] = test system: rat primary cortical neurons; assay: Neuron survival assay against NMDA insult (LDH release); format: cell-based; conditions: NMDA 20 μM; for protection of rat primary cortical neurons from NMDA insults (LDH release, fold change vs DMSO): compounds 10-30 μg/ml, 11 DIV; for cell death (LDH release, cell cytotoxicity vs DMSO): compound 10 μg/mL, DIV 11
# Description: Primary cortical and hippocampal neurons were prepared from embryonic day 18 (E18) Sprague-Dawley rats. Neurons were plated on 24-well plate (TPP, Corning) at a density of 2×10^5 cells per well using Neurobasal medium (Invitrogen) supplemented with 2% B27 (Invitrogen). Neurons at 11-12 days in vitro (12 DIV) were subjected to drug treatment. Neurons were pretreated with the test compound for 2 hours prior to NMDA treatment. 0.1 μM (+)-MK-801 Hydrogen Maleate (Sigma) was added as a positive control. Briefly, the neurons were rinsed with Locke's solution (5 mM potassium chloride, 128 mM sodium chloride, 2.7 mM calcium chloride, 1 mM di-sodium hydrogen orthophosphate, 5 mM HEPES and 10 mM glucose in Milli-Q water) without Mg^2+, and incubated with addition of glycine (10 μM) for 15 minutes. After the incubation, the neurons were co-treated with the test compound (dissolved in Locke's plus glycine solution) and NMDA (20 μM; Sigma) for 20 minutes. Neurons were rinsed with Locke's plus Mg^2+ and replaced with fresh growth medium. The cell death was assayed and quantified using the lactate dehydrogenase release assay (Roche) after 24 hours.
# Embryonic rat cortical neurons (11 DIV) were treated with NMDA (20 μM) in the absence or presence of the LC series of compounds (10-30 μg/ml). […] LDH release in the medium after overnight incubation was measured and fold change was calculated when compared to the solvent control, DMSO.
# Embryonic rat cortical neurons (DIV 11) were treated with NMDA (20 μM) in the absence or presence of LC-01 or LC-02 (μg/mL). LDH release in the medium after overnight incubation was measured and cell cytotoxicity was calculated in percentage when compared to the solvent control, DMSO.
# Embryonic rat cortical neurons (DIV 11) were treated with NMDA (20 μM) in the absence or presence of LC-06 (μg/mL). LDH release in the medium after overnight incubation was measured and cell cytotoxicity was calculated in percentage when compared to the solvent control, DMSO.
# Embryonic rat cortical neurons (11 DIV) were treated with NMDA (20 μM) in the absence or presence of LC-24 or LC-25 (μg/mL). LDH release in the medium after overnight incubation was measured and cell cytotoxicity was calculated in percentage when compared to solvent control (DMSO).
# [2] = test system: scopolamine-induced memory deficit mice; assay: Morris Water Maze in scopolamine-induced memory deficit mice; format: in vivo; conditions: scopolamine 4 mg/kg i.p.
# Description: 6-8 week old outbred male I.C.R. mice, weighing 25-35g were housed two per cage in a climatically controlled animal room (23-25° C.) under 12 hours light/dark cycling. The animals were allowed access to water and food ad lib. The mice used for the experiment were brought to particular laboratory conditions for two days. All the experiments were conducted between 14:00 and 18:00. Scopolamine hydrobromide (Sigma, USA) was dissolved in saline in 4 mg/kg and administered in a volume of 10 ml/kg body weight. The experimental mice were randomly assigned into 3 groups, each consisting of 12 mice with similar mean body weights and age. Test sample was dissolved in physiological saline before the experiments each day. Scopolamine was administered through intraperitoneal injection (i.p.) at 30 minutes before the swimming tasks to induce memory deficit. Oral administrations (p.o.) of the test compound, or saline (0.9%) was started at the first day of the task and administrated according to a volume of 10 ml/kg body weight. Oral drug administrations were 45 minutes before the swimming tasks and conducted daily for 4 consecutive days until the end of the task.
# Each mouse was subjected to 4 trials per day for 4 consecutive days. […] The student t-test with repeated measures was used to analyze latency values, and calculated as the mean latency periods for each mouse. Data are expressed as means±S.E.M, *=P<0.05 and **=P<0.005 versus scopolamine.
# Scopolamine (SCOP; 4 mg/kg) was first administered intra-peritoneally to mice to impair their memories. […] On each day, the time taken for the mice to detect the hidden platform in the water maze was measured, in seconds. Measurements were calculated as the mean latency periods for each mouse; n=24. Data are expressed as mean±s.e.m. and compared to Saline/SCOP group. […]
# In FIG. 13, mice were first orally administered LC-24 (30 mg/kg), scopolamine (4 mg/kg) was i.p. administered to mice 15 min to impair their memories. […] On each day, the time taken for the mice to detect the hidden platform in the water maze was measured, in seconds. […]
Compound,"protection of rat primary cortical neurons from NMDA insults (LDH release, fold change vs DMSO) [1]","cell death (LDH release, cell cytotoxicity vs DMSO) [1]","escape latency ([2]; 30 mg/kg oral, 4 days)",escape latency ([2]; 30 or 100 mg/kg oral),"escape latency ([2]; 100 mg/kg oral, 4 days)"
CC[C@H]1N[C@@H](Cc2ccccc2)C(CC)(CC)O1 [LC-24],significantly protected,cell death was markedly reduced,reduced the increased escape latency induced by scopolamine,,
CC[C@H]1N[C@@H](CC(C)C)C(CC)(CC)O1 [LC-02],significantly protected,cell death was markedly reduced,,decreases escape latencies,
CCCC1(CCC)O[C@@H](CC)N[C@H]1CC(C)C [LC-06],significantly protected,cell death was markedly reduced,,,reversed the increased escape latency induced by scopolamine
